The text below walks through data of patent publication US7723473B2, “Peptide antagonists of TGF-beta family members and therapeutic uses thereof” (St. Louis University, priority 1997, dated 2010).

In experiment [1] the test system is TGF-β receptors. Description: Inhibition of specific binding of 125I-TGF-β1 to TGF-β receptors in mink lung epithelial cells. The conditions noted are these: 0.1 nM 125I-TGF-β1, 2.5 hr at 0° C.; read-out: IC50 for inhibiting 125I-TGF-β1 binding to TGF-β receptors. The method, then:
Specific binding of ^125I-labeled TGF-β1, TGF-β2, and TGF-β3 (^125I-TGF-β1, ^125I-TGF-β2, and ^125I-TGF-β3) to TGF-β receptors in mink lung epithelial cells. ^125I-TGF-β1, ^125I-TGF-β2, and ^125I-TGF-β3 were prepared by iodination of TGF-β1, TGF-β2, and TGF-β3 with Na^125I as described previously (Ref. 7). The specific radioactivities of ^125I-TGF-β1, ^125I-TGF-β2, and ^125I-TGF-β3 were 1-3×10^5 cpm/ng. Mink lung epithelial cells were grown on 24-well clustered dishes to near confluence in Dulbecco's modified Eagle medium (DMEM) containing 10% fetal calf serum. The epithelial cells were incubated with 0.1 nM ^125I-TGF-β1, ^125I-TGF-β2, or ^125I-TGF-β3 both with and without 100-fold excess of unlabeled TGF-β1, TGF-β2, or TGF-β3 in binding buffer (Ref. 7). After 2.5 hr at 0° C., the cells were washed two times with binding buffer, and the cell-associated radioactivity was determined. […] All experiments were carried out in triplicate cell cultures.

The subject of experiment [2] is type V TGF-β receptor (TβR-V). In words: 125I-TGF-β1-affinity labeling of cell-surface type V TGF-β receptor in mink lung epithelial cells. It is filed as binding. The conditions noted are these: various concentrations, FIG. 2 lanes 2-5. The method, then:
^125I-TGF-β1-affinity labeling of cell-surface TGF-β receptors in mink lung epithelial cells. Mink lung epithelial cells grown on 60-mm Petri dishes were incubated with 0.1 nM […] the presence of various concentrations of peptide β1^25 (41-65) or peptide β3^25 (41-65) in binding buffer. After 2.5 hr at 0° C., ^125I-TGF-β1-affinity labeling was carried out in the presence of DSS as described. The ^125I-TGF-β1-affinity-labeled TGF-β receptors were analyzed by 5% SDS-polyacrylamide gel electrophoresis under reducing conditions and autoradiography.

For experiment [3], the system named is TGF-β receptors. In words: Inhibition of specific binding of 125I-TGF-β2 to TGF-β receptors in mink lung epithelial cells. The conditions noted are these: 0.1 nM 125I-TGF-β2, 2.5 hr at 0° C.; read-out: IC50 for inhibiting 125I-TGF-β2 binding to TGF-β receptors. The protocol:
Specific binding of ^125I-labeled TGF-β1, TGF-β2, and TGF-β3 (^125I-TGF-β1, ^125I-TGF-β2, and ^125I-TGF-β3) to TGF-β receptors in mink lung epithelial cells. ^125I-TGF-β1, ^125I-TGF-β2, and ^125I-TGF-β3 were prepared by iodination of TGF-β1, TGF-β2, and TGF-β3 with Na^125I as described previously (Ref. 7). The specific radioactivities of ^125I-TGF-β1, ^125I-TGF-β2, and ^125I-TGF-β3 were 1-3×10^5 cpm/ng. Mink lung epithelial cells were grown on 24-well clustered dishes to near confluence in Dulbecco's modified Eagle medium (DMEM) containing 10% fetal calf serum. The epithelial cells were incubated with 0.1 nM ^125I-TGF-β1, ^125I-TGF-β2, or ^125I-TGF-β3 both with and without 100-fold excess of unlabeled TGF-β1, TGF-β2, or TGF-β3 in binding buffer (Ref. 7). After 2.5 hr at 0° C., the cells were washed two times with binding buffer, and the cell-associated radioactivity was determined. The specific binding of ^125I-labeled TGF-β isoforms to TGF-β receptors in the cells was calculated by subtracting non-specific binding (in the presence of 100-fold excess of the unlabeled TGF-β isoforms) from total binding. All experiments were carried out in triplicate cell cultures.

On to “ANFCSGPCPYLRSADTTHSTVLGLY [peptide β3^25 (41-65)]”, for which the IC50 with TGF-β receptors [1] and with TGF-β receptors [3] was around 20 µM each time. Besides, the “blocking the 125I-TGF-β1-affinity labeling of the type V TGF-β receptor” value in experiment [2] is reported as “weak activity”.

What is called IC50 is the point on the concentration scale where inhibition reaches its midpoint.
